This note sets out measurements from patent publication US20030199515A1, “Method for the preparation of crystalline tetrahydrobenzothiepines” (G.D. SEARLE, LLC, priority 2001, published 2003).

Structures are written as SMILES.

The nature of this data set: Water uptake experiments (Dynamic Vapor Sorption water sorption/desorption isotherms). Format: physicochemical. To be noted: for hygroscopicity (in words): crystalline form. The method, then: Water sorption experiments are performed on a Dynamic Vapor Sorption (DVS) apparatus (DVS-1000 manufactured by Surface Measurements Systems, Inc.). Experiments are performed at 25° C. by initially drying the material of interest (about 10 mg sample) from 30% relative humidity (RH) (ambient room condition) to about […] in a stepwise fashion (10% RH step) by purging with dry nitrogen until no further weight change was observed. The samples are then exposed to a stepwise (10% RH steps) increase in RH from about 0 to about 90% RH. Each successive step is initiated when the change in weight over time at the relative humidity was less than 0.0003% ((dm/dt)/m0×100, where m is mass in mg, m0 is initial mass, and t is time in minutes). The sample is then taken through the reverse of the stepwise % RH increase. The data are collected on a computer and analyzed using SMS′ proprietary MS-Excel macro interface software.

In the case of `CCCCC1(CCCC)CS(=O)(=O)c2ccc(N(C)C)cc2[C@@H](c2ccc(OCc3ccc(C[N+]45CCN(CC4)CC5)cc3)cc2)[C@H]1O.[Cl-]` [Form I, (4R,5R)-1-((4-(4-(3,3-dibutyl-7-(dimethylamino)-2,3,4,5-tetrahydro-4-hydroxy-1,1-dioxido-1-benzithiepin-5-yl)phenoxy)methyl)phenyl)methyl-4-aza-1-azoniabicyclo[2.2.2]octane Chloride], the “hygroscopicity (in words)” value is “hygroscopic”.

For the molecule `CCCCC1(CCCC)CS(=O)(=O)c2ccc(N(C)C)cc2[C@@H](c2ccc(OCc3ccc(C[N+]45CCN(CC4)CC5)cc3)cc2)[C@H]1O.[Cl-]` [Form II, (4R,5R)-1-((4-(4-(3,3-dibutyl-7-(dimethylamino)-2,3,4,5-tetrahydro-4-hydroxy-1,1-dioxido-1-benzithiepin-5-yl)phenoxy)methyl)phenyl)methyl-4-aza-1-azoniabicyclo[2.2.2]octane Chloride], the “hygroscopicity (in words)” value is listed as “essentially nonhygroscopic”. Moreover, the “hygroscopicity (in words)” value (listed as form II) is “essentially non-hygroscopic”. Besides, the “weight gain of a dry sample (% of its own weight) when equilibrated under humid air” value (dry sample, equilibrated under 80% relative humidity (RH) air at 25° C.) is given as “less than 1%”.
